According to patent publication US20250230155A1 (Vanderbilt University, priority 2021, published 2025):
Where two headings read alike, the source gives them in different places.

Target: T1, human mAChR M4 (Homo sapiens, UniProt P08173)
T1 construct: expressed in transfected cells
T1 sequence (P08173 1-479): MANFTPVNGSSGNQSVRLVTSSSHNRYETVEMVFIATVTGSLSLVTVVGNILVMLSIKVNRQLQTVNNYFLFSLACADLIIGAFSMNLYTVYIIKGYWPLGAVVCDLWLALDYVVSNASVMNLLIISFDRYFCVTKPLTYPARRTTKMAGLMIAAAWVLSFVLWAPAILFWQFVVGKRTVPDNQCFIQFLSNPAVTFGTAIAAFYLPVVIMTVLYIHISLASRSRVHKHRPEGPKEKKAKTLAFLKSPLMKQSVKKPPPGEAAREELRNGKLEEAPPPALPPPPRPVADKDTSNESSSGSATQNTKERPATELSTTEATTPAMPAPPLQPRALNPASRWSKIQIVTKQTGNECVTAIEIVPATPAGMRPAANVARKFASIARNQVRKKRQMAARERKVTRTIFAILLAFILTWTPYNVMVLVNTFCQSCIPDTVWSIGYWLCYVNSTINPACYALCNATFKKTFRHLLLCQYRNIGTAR
Experiment: mAChR M4 cell-based functional assay (calcium mobilization, CHO-K1 hM4-Gqi5 cells)
Settings: for Emax at 30 µM: CHO-K1, % ACh maximum at 30 μM, human M4; for EC50: increase in the EC20 acetylcholine response, CHO-K1 hM4-Gqi5 cells; for Emax: CHO-K1
Procedure, shortened: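 Fluorescent calcium read-out (Fluo-4 AM, FDSS, 1 Hz) in hM4-Gqi5 CHO-K1 cells, 11-point 1:3 compound series. Agonism scored on compound addition, PAM activity as increase of the 144 s EC20 acetylcholine response, antagonism as decrease of the 230 s EC80 response; four-parameter logistic fits give EC50 and Emax.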

[1] = positive allosteric modulator activity, read-out: Human M4 EC50

SMILES | Emax at 30 µM [%] | EC50 [1] [nM] | Emax [%] | EC50 (Human M4 EC50, positive allosteric modulator activity) [nM]
Cc1cc(C(=O)NCc2ccc3c(c2)CC(=O)N3)cnc1N1CCc2ncccc2C1 [compound 154, 6-(7,8-dihydro-5H-1,6-naphthyridin-6-yl)-5-methyl-N-[(2-oxoindolin-5-yl)methyl]pyridine-3-carboxamide] | 47 | 6560 | – | –
Cc1cc(C(=O)NCc2ccc3nn[nH]c3c2)cnc1N1CCc2ncccc2C1 [compound 150, N-(3H-benzotriazol-5-ylmethyl)-6-(7,8-dihydro-5H-1,6-naphthyridin-6-yl)-5-methyl-pyridine-3-carboxamide] | 61 | 4680 | – | –
COCCOc1cnc2c(c1)CN(c1ncc(C#N)cc1C)CC2 [Example 434, 6-(3-(2-methoxyethoxy)-7,8-dihydro-1,6-naphthyridin-6(5H)-yl)-5-methylnicotinonitrile] | 102 | 958 | – | –
Cc1ccc2c(n1)CCN(c1nnc(C#N)cc1C)C2 [Example 605, 5-methyl-6-(2-methyl-7,8-dihydro-1,6-naphthyridin-6(5H)-yl)pyridazine-3-carbonitrile] | – | 1440 | 106 | –
Cc1cc(C(=O)N2CCCC2)nnc1N1CCc2ncc(N3CCO[C@H](C)C3)cc2C1 [Example 536, (R)-(5-methyl-6-(3-(2-methylmorpholino)-7,8-dihydro-1,6-naphthyridin-6(5H)-yl)pyridazin-3-yl)(pyrrolidin-1-yl)methanone] | 86 | 1150 | – | –
Cc1cc(C(=O)NC(C)C)cnc1N1CCc2ncccc2C1 [compound 58, 6-(7,8-dihydro-5H-1,6-naphthyridin-6-yl)-N-isopropyl-5-methyl-pyridine-3-carboxamide] | 51 | ≥ 10000 | – | –
Cc1cc(C(=O)NC23CC(F)(C2)C3)cnc1N1CCc2ncccc2C1 [compound 124, 6-(7,8-dihydro-5H-1,6-naphthyridin-6-yl)-N-(3-fluoro-1-bicyclo[1.1.1]pentanyl)-5-methyl-pyridine-3-carboxamide] | 78 | 2170 | – | –
Cc1cc(C(=O)NC2CC3(COC3)C2)cnc1N1CCc2ncc(-c3cn(C)nc3C)cc2C1 [Example 475, 6-(3-(1,3-dimethyl-1H-pyrazol-4-yl)-7,8-dihydro-1,6-naphthyridin-6(5H)-yl)-5-methyl-N-(2-oxaspiro[3.3]heptan-6-yl)nicotinamide] | 64 | 1740 | – | –
COC(=O)c1ccc(CNC(=O)c2cnc(N3CCc4ncccc4C3)c(C)c2)cn1 [compound 142, methyl 5-[[[6-(7,8-dihydro-5H-1,6-naphthyridin-6-yl)-5-methyl-pyridine-3-carbonyl]amino]methyl]pyridine-2-carboxylate] | 50 | ≥ 10000 | – | –
Cc1nc(Cl)c(C)c(N2CCc3ncc(C4CC4)cc3C2)n1 [compound 225, 6-(6-chloro-2,5-dimethylpyrimidin-4-yl)-3-cyclopropyl-5,6,7,8-tetrahydro-1,6-naphthyridine] | – | – | 87 | 57
Cc1cc(C(=O)NCc2cccc3cccnc23)cnc1N1CCc2ncccc2C1 [compound 156, 6-(7,8-dihydro-5H-1,6-naphthyridin-6-yl)-5-methyl-N-(8-quinolylmethyl)pyridine-3-carboxamide] | 84 | 1150 | – | –
Cc1cc(C(=O)N2CCc3ccncc3C2)nnc1N1CCc2ncc(C(F)(F)F)cc2C1 [Example 499, (3,4-dihydro-2,7-naphthyridin-2(1H)-yl)(5-methyl-6-(3-(trifluoromethyl)-7,8-dihydro-1,6-naphthyridin-6(5H)-yl)pyridazin-3-yl)methanone] | 88 | 2670 | – | –

More lines, in order of falling EC50 [1], values ahead:

Emax at 30 µM [%] | EC50 [1] [nM] | SMILES | Emax [%] | EC50 (Human M4 EC50, positive allosteric modulator activity) [nM]
63 | 668 | Cc1nc(C)c(C)c(N2CCc3ncc(-c4ccc(N5CCCC5)nc4)cc3C2)n1 [compound 231, 3-(6-(pyrrolidin-1-yl)pyridin-3-yl)-6-(2,5,6-trimethylpyrimidin-4-yl)-5,6,7,8-tetrahydro-1,6-naphthyridine] | – | –
33 | 560 | Cc1c(C#N)nnc(N2CCc3ncc(-c4ccc5ncn(C)c5c4)cc3C2)c1C [Example 17] | – | –
80 | 516 | Cc1cc(C#N)nnc1N1CCc2ncc(N3CCCn4nc(C(C)(C)C)cc43)cc2C1 [Example 418, 6-(3-(2-(tert-butyl)-6,7-dihydropyrazolo[1,5-a]pyrimidin-4(5H)-yl)-7,8-dihydro-1,6-naphthyridin-6(5H)-yl)-5-methylpyridazine-3-carbonitrile] | – | –
– | 368 | Clc1nc2c(c(N3CCc4ncc(N5CCOc6ncccc65)cc4C3)n1)COC2 [compound 283, 1-(6-(2-chloro-5,7-dihydrofuro[3,4-d]pyrimidin-4-yl)-5,6,7,8-tetrahydro-1,6-naphthyridin-3-yl)-2,3-dihydro-1H-pyrido[2,3-b][1,4]oxazine] | – | –
65 | 324 | Cc1c(C#N)nnc(N2CCc3ncc(Nc4ncc(F)cc4F)cc3C2)c1C [compound 78, 6-[3-[(3,5-difluoro-2-pyridyl)amino]-7,8-dihydro-5H-1,6-naphthyridin-6-yl]-4,5-dimethyl-pyridazine-3-carbonitrile] | – | –
97 | 318 | Cc1cc(C#N)cnc1N1CCc2ncc(-c3ccc(C4CC4)nc3)cc2C1 [compound 186, 6-[3-(6-cyclopropyl-3-pyridyl)-7,8-dihydro-5H-1,6-naphthyridin-6-yl]-5-methyl-pyridine-3-carbonitrile] | – | –
– | 302 | Clc1nc2c(c(N3CCc4ncc(N5CCCn6nccc65)cc4C3)n1)COC2 [compound 282, 2-chloro-4-(3-(6,7-dihydropyrazolo[1,5-a]pyrimidin-4(5H)-yl)-7,8-dihydro-1,6-naphthyridin-6(5H)-yl)-5,7-dihydrofuro[3,4-d]pyrimidine] | – | –
67 | 266 | Cc1nc(C)c(C)c(N2CCc3ncc(-c4ccc(N5CCOCC5)nc4)cc3C2)n1 [compound 227, 4-(5-(6-(2,5,6-trimethylpyrimidin-4-yl)-5,6,7,8-tetrahydro-1,6-naphthyridin-3-yl)pyridin-2-yl)morpholine] | – | –
73 | 239 | Cc1c(C#N)nnc(N2CCc3ncc(Nc4ccccc4Cl)cc3C2)c1C [compound 39, 6-[3-(2-chloroanilino)-7,8-dihydro-5H-1,6-naphthyridin-6-yl]-4,5-dimethyl-pyridazine-3-carbonitrile] | – | –
97 | 226 | Cc1cc(C#N)cnc1N1CCc2ncc(-n3ccnc3)cc2C1 [Example 343, 6-(3-(1H-imidazol-1-yl)-7,8-dihydro-1,6-naphthyridin-6(5H)-yl)-5-methylnicotinonitrile] | – | –
99 | 176 | Cc1cc(C(=O)N2CC(F)C2)nnc1N1CCc2ncc(CC(F)(F)F)cc2C1 [Example 586, (3-fluoroazetidin-1-yl)(5-methyl-6-(3-(2,2,2-trifluoroethyl)-7,8-dihydro-1,6-naphthyridin-6(5H)-yl)pyridazin-3-yl)methanone] | – | –
111 | 145 | Cc1cc(C#N)cnc1N1CCc2ncc(C(F)(F)F)cc2C1 [compound 165, 5-methyl-6-[3-(trifluoromethyl)-7,8-dihydro-5H-1,6-naphthyridin-6-yl]pyridine-3-carbonitrile] | – | –
81 | 136 | Cc1c(C#N)nnc(N2CCc3ncc(-c4cccnc4)cc3C2)c1C [compound 47, 4,5-dimethyl-6-[3-(3-pyridyl)-7,8-dihydro-5H-1,6-naphthyridin-6-yl]pyridazine-3-carbonitrile] | – | –
98 | 75.8 | Cc1cc(F)ncc1-c1cnc2c(c1)CN(c1ncc(C(=O)NCc3nccs3)cc1C)CC2 [compound 174, 6-[3-(6-fluoro-4-methyl-3-pyridyl)-7,8-dihydro-5H-1,6-naphthyridin-6-yl]-5-methyl-N-(thiazol-2-ylmethyl)pyridine-3-carboxamide] | – | –
101 | 64 | Cc1cc(C(=O)NCc2ccncc2Cl)nnc1N1CCc2ncc(C(F)(F)F)cc2C1 [Example 497, N-((3-chloropyridin-4-yl)methyl)-5-methyl-6-(3-(trifluoromethyl)-7,8-dihydro-1,6-naphthyridin-6(5H)-yl)pyridazine-3-carboxamide] | – | –
90 | 51 | Cc1cc(C(=O)N2Cc3cccnc3C2)nnc1N1CCc2ncc(N3CCCn4nccc43)cc2C1 [Example 513, (5,7-dihydro-6H-pyrrolo[3,4-b]pyridin-6-yl)(6-(3-(6,7-dihydropyrazolo[1,5-a]pyrimidin-4(5H)-yl)-7,8-dihydro-1,6-naphthyridin-6(5H)-yl)-5-methylpyridazin-3-yl)methanone] | – | –
76 | 12 | Cc1cc(C(=O)N2CC(c3ccncc3)C2)nnc1N1CCc2ncc(N3CCCn4nccc43)cc2C1 [Example 517, (6-(3-(6,7-dihydropyrazolo[1,5-a]pyrimidin-4(5H)-yl)-7,8-dihydro-1,6-naphthyridin-6(5H)-yl)-5-methylpyridazin-3-yl)(3-(pyridin-4-yl)azetidin-1-yl)methanone] | – | –
